# Source: patent publication US7566531B2, “Selective whole cell quartz crystal microbalance biosensors” (University of Massachusetts, priority 2003, dated 2009)
# Experiments:
# [1] = tested on: normal capillary endothelial cells; experiment: cell removal from QCM by PBS-EGTA; type: cell-based
# Protocol: The above-described QCM biosensor was used to study cells and the ECM made by the cells. 50,000 normal capillary endothelial cells were seeded onto the QCM and maintained in DMEM-10% Calf Serum for 3-4 days to synthesize ECM. The cells were then removed by incubating in PBS-0.25 mM EGTA three times for 6 hours according to the method described in Paige et al., Cell Dev. Biol., 27A:151-157, 1991. During this process, the frequency and resistance of the QCM were recorded and plotted.
# To corroborate this discovery, immunocytochemistry was carried out to examine actin stress fiber in the cells using standard techniques.
# MDA-MB-231 cells [2] = experiment: whole cell QCM biosensor, Δf and ΔR after drug addition; type: cell-based, human; conditions: for QCM frequency decrease, Phase I / increase in QCM resistance, Phase I: hour 0 to hour 6 post drug addition; for QCM frequency decrease, Phase I / increase in QCM resistance, Phase I / QCM frequency increase, Phase II: 0.1 μM docetaxel, 10 μM paclitaxel; for QCM frequency increase, Phase II: hour 6 to hour 20 post drug addition
# Protocol: (§1) Normal human mammary epithelial cells (HMEC), estrogen receptor-positive human breast cancer cells (MCF-7, a non-metastatic, malignant mammary epithelial cells), and estrogen receptor-negative metastatic human breast cancer cells (MDA-MB-231) were used for this study. These commercially available cells were cultured and harvested as recommended by the supplier, American Type Cell Cultures (ATCC). The cells were then seeded onto the chemically modified conducting surface of separate whole cell QCM biosensors and were allowed to reach the steady state. In general, it takes about 12-14 hours (hours) or less (as quick as within 6 hours) for the cells to reach the steady state on the new selective whole cell QCM biosensors. In contrast, on a QCM biosensor without the selective substrate, it takes about 20-24 hours for the cells to reach steady state. Cell number-dependent characteristic Δf and ΔR shift values of these cells were recorded as described in Marx et al., Biosens. Bioelectron., 16(9-12):773-82, 2001.
# (§2) MCF-7 cells, which are resistant to paclitaxel treatment and MDA-MB-231 cells, which are sensitive to paclitaxel treatment were seeded onto two separate whole cell QCM biosensors and allowed to reach steady state as described above.
# (§3) Paclitaxel (Sigma Chemical Company) was dissolved in dimethylsulfoxide to make a stock solution. The stock solution was properly diluted in culture media before being added to the cells on the QCM biosensors, so that the final concentration was 10 μM. […] After adding paclitaxel, the Δf and ΔR of the QCMs were monitored and recorded hourly.
# (§4) MCF-7 cells and MDA-MB-231 cells were cultured and seeded onto QCM biosensors according to the method described above. The cells were then incubated with 0.1 μM docetaxel (Aventis Pharmaceuticals) and 10 μM paclitaxel. The changes in frequencies and resistances of the QCMs were monitored for 24 hours.
# MCF-7 cells [3] = experiment: as above; type: cell-based, human; conditions: for QCM frequency decrease, Phase I / change in QCM resistance, Phase I: hour 0 to hour 6 post drug addition; for QCM frequency decrease, Phase I / change in QCM resistance, Phase I / QCM frequency increase, Phase II: 0.1 μM docetaxel, 10 μM paclitaxel; for QCM frequency increase, Phase II: hour 6 to hour 20 post drug addition
# Protocol: as §1, §2, §3, §4
# MDA-MB-231 cells [4] = experiment: conventional proliferation assays and apoptosis assays; type: cell-based, human
# Protocol: (§5) To confirm that the changes in the QCM frequency and resistance are associated with changes in cell growth or apoptosis, conventional proliferation assays and apoptosis assays were conducted on MDA-MB-231 cells and MCF-7 cells treated with docetaxel or paclitaxel. […] For example, both drugs reduced the mitotic index of MCF-7 cells and eliminated that of MDA-MB-231.
# MCF-7 cells [5] = experiment: as above; type: cell-based, human
# Protocol: as §5
# MDA-MB-231 cells [6] = experiment: apoptosis assay (DAPI staining; Apoptotic Index and Mitotic Index); type: cell-based, human
# Protocol: (§6) Duplicate MCF-7 or MDA-MB-231 cells that were treated with the same dose of paclitaxel were analyzed using an apoptosis assay as described in Warren M. et al., Free Radic Biol Med. 29:537-47, 2000. Briefly, cells were fixed sequentially in 50% and 100% methanol for 5 minutes each. The cells were then stained with 4,6,diamidino-2-phenylindole (DAPI; Sigma) at a final concentration of 0.5 mg/ml at 37° C. for 30 minutes. After being air-dried and mounted with 1:3 PBS-glycerol, chromatin distribution in the cells were visualized by fluorescence. […] Apoptosis was scored as the percentage of apoptotic cells in relation to the total cell number (i.e., Apoptotic Index), corrected for baseline apoptosis. Mitotic cells were also identified and mitosis was scored as the percentage of the mitotic cells in relation to all of the cells (i.e., Mitotic Index).
# MCF-7 cells [7] = experiment: as above; type: cell-based, human
# Protocol: as §6
# MCF-7 cells [8] = experiment: as above; type: cell-based, human; conditions: 10 μM
# [9] = PBS-0.25 mM EGTA, EGTA 1 at hour 112 after cell seeding
# [10] = 10 μM, 8 hours post paclitaxel addition
# [11] = 10 μM, 50 hours post paclitaxel addition
# [12] = 10 μM, between 8 and 50 hours post addition
smiles,measurement,setting,value
O=C(O)CN(CCOCCOCCN(CC(=O)O)CC(=O)O)CC(=O)O [EGTA],ΔR on initial exposure,[1]; [9],large decrease
same,Δf on initial exposure,[1]; [9],large increase
same,time for frequency and resistance to return to stable values,"[1]; PBS-0.25 mM EGTA, first exposure",≤ 2 h
same,cell detachment from the surface,[1]; minute 120 after exposing to EGTA,most cells had detached
CC(=O)O[C@@]12CO[C@@H]1C[C@H](O)[C@@]1(C)C(=O)[C@H](O)C3=C(C)[C@@H](OC(=O)[C@H](O)[C@@H](NC(=O)OC(C)(C)C)c4ccccc4)C[C@@](O)([C@@H](OC(=O)c4ccccc4)[C@H]21)C3(C)C [docetaxel],"QCM frequency decrease, Phase I",MDA-MB-231 cells [2],−70 Hz
same,"increase in QCM resistance, Phase I",MDA-MB-231 cells [2],20 Ohm
same,"QCM frequency increase, Phase II",MDA-MB-231 cells [2],98 Hz
same,"QCM frequency decrease, Phase I",MCF-7 cells [3],−50 Hz
same,"change in QCM resistance, Phase I",MCF-7 cells [3],little change
same,"QCM frequency increase, Phase II",MCF-7 cells [3],10-20 Hz
same,apoptosis,MDA-MB-231 cells [4],induced apoptosis
same,cell growth,MDA-MB-231 cells [4],inhibited cell growth
same,mitotic index,MDA-MB-231 cells [4],eliminated
same,apoptosis,MCF-7 cells [5],induced apoptosis
same,cell growth,MCF-7 cells [5],inhibited cell growth
same,mitotic index,MCF-7 cells [5],reduced
CC(=O)O[C@H]1C(=O)[C@@]2(C)[C@H]([C@H](OC(=O)c3ccccc3)[C@]3(O)C[C@H](OC(=O)[C@H](O)[C@@H](NC(=O)c4ccccc4)c4ccccc4)C(C)=C1C3(C)C)[C@]1(OC(C)=O)CO[C@@H]1C[C@@H]2O [paclitaxel],"start of obvious cell shape change and eventually apoptosis, time post paclitaxel addition",MDA-MB-231 cells [6]; 10 μM,8 h
same,Apoptotic Index (AI),"MDA-MB-231 cells [6]; 3 hours, 10 uM",<1%
same,Mitotic Index (MI),"MDA-MB-231 cells [6]; 3 hours, 10 uM",0%
same,Apoptotic Index (AI),"MDA-MB-231 cells [6]; 6 hours, 0.1 uM",1%
same,Mitotic Index (MI),"MDA-MB-231 cells [6]; 6 hours, 0.1 uM",0%
same,Apoptotic Index (AI),"MDA-MB-231 cells [6]; 6 hours, 1.0 uM",8.5%
same,Mitotic Index (MI),"MDA-MB-231 cells [6]; 6 hours, 1.0 uM",0%
same,Apoptotic Index (AI),"MDA-MB-231 cells [6]; 6 hours, 10 uM",10%
same,Mitotic Index (MI),"MDA-MB-231 cells [6]; 6 hours, 10 uM",0%
same,Apoptotic Index (AI),"MDA-MB-231 cells [6]; 12 hours, 10 uM",40%
same,Mitotic Index (MI),"MDA-MB-231 cells [6]; 12 hours, 10 uM",0%
same,Apoptotic Index (AI),"MDA-MB-231 cells [6]; 24 hours, 10 uM",84%
same,Mitotic Index (MI),"MDA-MB-231 cells [6]; 24 hours, 10 uM",0%
same,Apoptotic Index (AI),"MCF-7 cells [7]; 3 hours, 10 uM",<1%
same,Mitotic Index (MI),"MCF-7 cells [7]; 3 hours, 10 uM",1%
same,Apoptotic Index (AI),"MCF-7 cells [7]; 6 hours, 0.1 uM",1%
same,Mitotic Index (MI),"MCF-7 cells [7]; 6 hours, 0.1 uM",1%
same,Apoptotic Index (AI),"MCF-7 cells [7]; 6 hours, 1.0 uM",4.5%
same,Mitotic Index (MI),"MCF-7 cells [7]; 6 hours, 1.0 uM",0%
same,Apoptotic Index (AI),"MCF-7 cells [7]; 6 hours, 10 uM",11%
same,Mitotic Index (MI),"MCF-7 cells [7]; 6 hours, 10 uM",0%
same,Apoptotic Index (AI),"MCF-7 cells [7]; 12 hours, 10 uM",25%
same,Mitotic Index (MI),"MCF-7 cells [7]; 12 hours, 10 uM",0%
same,Apoptotic Index (AI),"MCF-7 cells [7]; 24 hours, 10 uM",33%
same,Mitotic Index (MI),"MCF-7 cells [7]; 24 hours, 10 uM",0%
same,"start of obvious cell shape change and eventually apoptosis, time post paclitaxel addition",MCF-7 cells [8],8 h
same,ΔR increase immediately after adding the drug,MDA-MB-231 cells [2]; 10 μM,about 70 Ω
same,ΔR,MDA-MB-231 cells [2]; [10],about 80 Ω
same,Δf,MDA-MB-231 cells [2]; [10],−250 Hz
same,ΔR,MDA-MB-231 cells [2]; [11],about 40 Ω
same,Δf,MDA-MB-231 cells [2]; [11],−110 Hz
same,magnitude of change of ΔR,MDA-MB-231 cells [2]; [12],40 Ω
same,magnitude of change of Δf,MDA-MB-231 cells [2]; [12],140 Hz
same,"QCM frequency decrease, Phase I",MDA-MB-231 cells [2],−20 Hz
same,"increase in QCM resistance, Phase I",MDA-MB-231 cells [2],little change
same,"QCM frequency increase, Phase II",MDA-MB-231 cells [2],60 Hz
same,ΔR decrease immediately after adding the drug,MCF-7 cells [3]; 10 μM,50 Ω
same,ΔR,MCF-7 cells [3]; [10],about 40 Ω
same,Δf,MCF-7 cells [3]; [10],−300 Hz
same,ΔR,MCF-7 cells [3]; [11],about 20 Ω
same,Δf,MCF-7 cells [3]; [11],−260 Hz
same,magnitude of change of ΔR,MCF-7 cells [3]; [12],20 Ω
same,magnitude of change of Δf,MCF-7 cells [3]; [12],40 Hz
same,"QCM frequency decrease, Phase I",MCF-7 cells [3],−20 Hz
same,"change in QCM resistance, Phase I",MCF-7 cells [3],little change
same,"QCM frequency increase, Phase II",MCF-7 cells [3],50 Hz
same,apoptosis,MDA-MB-231 cells [4],induced apoptosis
same,cell growth,MDA-MB-231 cells [4],inhibited cell growth
same,mitotic index,MDA-MB-231 cells [4],eliminated
same,apoptosis,MCF-7 cells [5],induced apoptosis
same,cell growth,MCF-7 cells [5],inhibited cell growth
same,mitotic index,MCF-7 cells [5],reduced
